Data as given in US11192863B2, “Antiviral compounds and methods” (Biotron Limited, priority 2003, dated 2021).
Values joined by “and” are separate entries in the source; they are usually repeats but may differ in a detail not shown here. Identical values can stand only once. Counter-ions that a name gives are not always drawn. Like-named read-outs stand apart in the source and are kept apart here.

Assays:
[1] = test system: MHV (strain MHV-A59); settings: L929 cells
[2] = molecular target: SARS-CoV E protein (Severe acute respiratory syndrome coronavirus, UniProt P59637); format: cell-based
Chain of SARS-CoV E protein (P59637 whole entry, looked up): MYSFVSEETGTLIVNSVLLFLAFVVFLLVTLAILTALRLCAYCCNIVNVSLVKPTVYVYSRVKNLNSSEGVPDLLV

[3] = molecular target: Vpu protein (Human immunodeficiency virus type 1 group M subtype B, UniProt P05919); settings: halo of growth score between zero and six; XL1-blue E. coli with pPL-Vpu, no adenine, 37° C.
Chain of Vpu protein (P05919 whole entry): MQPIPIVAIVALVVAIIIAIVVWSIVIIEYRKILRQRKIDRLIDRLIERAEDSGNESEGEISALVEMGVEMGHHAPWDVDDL

SMILES	Percent reduction in Plaque number/# experiments ([1]; 1 uM)	Percent reduction in Plaque number/# experiments ([1]; 10 uM)	Percent reduction in Plaque number/# experiments ([1]; 20 uM)	SARS E protein Inhibition (score/# of times tested) [2]	Vpu Inhibition (score/# of times tested) [3]	Toxic (noted in place of plaque reduction) ([1]; 20 uM)
N=C(NC(=O)c1ccc2ccccc2c1)NC(=O)c1ccc2ccccc2c1 [N,N′-bis(2-napthoyl)guanidine]	3/1%	3/2%	5/1%			
N=C(NC(=O)c1cccc2ccccc12)NC(=O)c1cccc2ccccc12 [N,N′-bis(1-napthoyl)guanidine]	35/1%	52/2%	58/1%			
CC(C)CN(C)c1nc(N)c(C(=O)N=C(N)N)nc1Cl [5-(N-Methyl-N-isobutyl)amiloride, 5-(N-methyl-N-isobutyl)amiloride]	44/2%	85/1%	92/1%	3.13/2 score	0.8/2 score	
NC(N)=NC(=O)c1nc(Cl)c(N2CCCCCC2)nc1O [3-hydroxy-5-hexamethyleneimino-amiloride]	1/1%	22/2%	16/1%			
N=C(N)NC(=O)/C=C/c1ccc([N+](=O)[O-])cc1 [(4-Nitrocinnamoyl)guanidine]	40/3%	75/3%	97/1%			
O=C(/C=C/c1ccccc1)NC(=Nc1ccccc1)NC(=O)/C=C/c1ccccc1 [N,N′-bis-(cinnamoyl)-N″-phenylguanidine]	31/1%	38/2%	16/1%		0.94/2 score	
CCN(c1nc(N)c(C(=O)N=C(N)N)nc1Cl)C(C)C [5-(N-Ethyl-N-isopropyl)amiloride, 5-(N-ethyl-N-isopropyl)amiloride]				1.07/2 score	0.6/3 score	
CN(C)C(=N)NC(=O)/C=C/c1ccccc1 [N-Cinnamoyl-N′,N′-dimethylguanidine]	24/2%	65/3%	92/2%			
N/C(=N\C(=O)/C=C/c1ccccc1)NC(=O)c1ccccc1 [N-Benzoyl-N′-cinnamoylguanidine]	14/1%	0/1%	0/1%	0.13/2 score	0.06/2 score	
N/C(=N/C(=O)c1ccc2ccccc2c1)Nc1ccccc1 [N-(2-napthoyl)-N′-phenylguanidine]				0.07/2 score		
N=C(N)NC(=O)COc1ccc(Cl)cc1 [[(4-Chlorophenoxy-acetyl]guanidine, (4-Chlorophenoxy-acetyl)guanidine]	0/1%	16/1%	19/1%	0.19/2 score	0.56/2 score	
N=C(NC(=O)/C=C/c1ccccc1)Nc1ccccc1 [N-(cinnamoyl)-N′phenylguanidine, N-(cinnamoyl)-N′-phenylguanidine]	13/1%	88/1%	83/1%	1.19/2 score	1.25/3 score	
N=C(N)NC(=O)/C=C/c1ccoc1 [trans-3-Furanacryoylguanidine, trans-3-furanacryoylguanidine]	48/1%	65/1%	70/1%	0.88/2 score	0.38/2 score	
N=C(N)NC(=O)c1ccc2cc(Br)ccc2c1 [6-bromo-2-napthoylguanidine]	19/1%	43/1% and 37/2%	65/1%	0.25/1 score		
COc1nc(N2CCCCCC2)c(Cl)nc1C(=O)N=C(N)N [3-methoxy-HMA, 3-methoxy-5-(N,N-Hexamethylene)-amiloride]	35/1%	31/1%	15/1%	1.25/1 score	0.2/4 score	
N=C(N)NC(=O)CCc1ccccc1 [(3-phenylpropanoyl)guanidine]	0/1%	03/1%	51/1%	0.73/5 score	0.2/4 score	
N=C(N)NC(=O)/C=C/c1ccc2c(c1)OCO2 [3,4-(methylenedioxy)cinnamoylguanidine]	45/3%	82/3%	93/3%	1.25/1 score	1.88/2 score	

SMILES	Percent reduction in Plaque number/# experiments ([1]; 1 uM)	Percent reduction in Plaque number/# experiments ([1]; 10 uM)	Percent reduction in Plaque number/# experiments ([1]; 20 uM)	SARS E protein Inhibition (score/# of times tested) [2]	Vpu Inhibition (score/# of times tested) [3]	Toxic (noted in place of plaque reduction) ([1]; 20 uM)
N=C(N)NC(=O)/C=C/c1c(F)cccc1Cl [2-chloro-6-fluorocinnamoylguanidine]	9/1%	84/2%	100/1%	0.25/1 score		
N=C(N)NC(=O)Cc1ccccc1 [(Phenylacetyl)guanidine]	3/1%	22/1%	35/1%	0.32/3 score		
NC(N)=NC(=O)c1ccc2ccccc2n1 [(Quinoline-2-carbonyl)guanidine]	12/1%	84/1%	86/1%	0.41/1 score		
NC(N)=NC(=O)c1cnc2ccccc2c1 [3-quinolinoylguanidine]	30/1%	36/2%	27/1%			
NC(N)=NC(=O)c1nc(Cl)c(-c2ccccc2)nc1N [N-amidino-3-amino-5-phenyl-6-chloro-2-pyrazinecarboxamide]	9/1%	20/2%	20/1%		0.5/11 score	
NC(N)=NC(=O)c1nc(-c2ccccc2)c(N2CCCCCC2)nc1N [N-amidino-3-amino-5-hexamethyleneimino-6-phenyl-2-pyrazinecarboxamide]	48/1%	52/2%	84/1%		0.6/2 score	
N=C(N)NC(=O)/C=C/c1cccnc1 [[3-(3-Pyridyl)acryloyl]guanidine]	21/2%	73/2%	81/2%	0.67/3 score		
NC(N)=NC(=O)c1nc(-c2ccccc2)c(N)nc1N [N-amidino-3,5-diamino-6-phenyl-2-pyrazinecarboxamide]	25/1%	39/2%	53/1%			
NC(N)=NC(=O)c1nc(I)c(N)nc1N [6-Iodoamiloride]	0/1%	21/1%	28/1%	1.75/2 score		
N=C(N)NC(=O)/C=C/c1ccccc1[N+](=O)[O-] [(2-Nitrocinnamoyl)guanidine]	47/1%	77/2%	97/1%		0.4/2 score	
O=C(/C=C/c1ccccc1)N=C(Nc1ccccc1)Nc1ccccc1 [N″-Cinnamoyl-N,N′-diphenylguanidine]	34/1%	72/2%	97/1%			
N=C(N)NC(=O)/C=C/C=C/c1ccccc1Br [5-(2′-bromophenyl)penta-2,4-dienoylguanidine]	57/1%	100/1%				Toxic
C/C(=C\c1ccc(N(C)C)cc1)C(=O)NC(=N)N [[(E)-3-(4-Dimethylaminophenyl)-2-methylacryloyl]guanidine]	37/1%	45/1%	56/1%			
N/C(=N\C(=O)c1nc(Cl)c(N)nc1N)Nc1ccccc1 [Phenamil methanesulfonate salt, N-(3,5-Diamino-6-chloro-pyrazine-2-carbonyl)-N′-phenylguanidine]				0.13/2 score	0.9/5 score	
Cl.NC(N)=NC(=O)c1nc(Cl)c(N)nc1N [Amiloride•HCl, reference compound]	−5/1%	18/1%	21/1%			
N=C(N)NC(=O)c1ccccc1 [Benzyoylguanidine, Benzoylguanidine]	14/1%	39/2%	22/1%		0.88/2 score	
